Test results published in patent US8846701B2, “Pyrazolo-quinazolines” (Nerviano Medical Sciences S.R.L., priority 2008, dated 2014).

tested on: A2780 human ovarian cancer cells; test: In vitro cell proliferation assay (CellTiter-Glo); assay type: cell-based; settings: 72 hours treatment
Experimental: A2780 human ovarian and MCF7 human breast cancer cells (1250 cells/well) were seeded in white 384 well-plates in complete medium (RPMI 1640 or EMEM plus 10% Fetal bovine serum) and treated with compounds dissolved in 0.1% DMSO, 24 h after seeding. The cells were incubated at 37° C. and 5% CO2 and after 72 hours the plates were processed using CellTiter-Glo assay (Promega) following the manufacturer's instruction. CellTiter-Glo is a homogenous method based on the quantification of the ATP present, an indicator of metabolitically active cells. ATP is quantified using a system based on luciferase and D-luciferin resulting into light generation. The luminescent signal is proportional to the number of cells present in culture.
Briefly 25 μl/well reagent solution were added to each well and after 5 minutes shacking microplates were red by Envision (PerkinElmer) luminometer. The luminescent signal was proportional to the number of cells present in culture.
Inhibitory activity was evaluated comparing treated versus control data using Assay Explorer (MDL) program. IC50 was calculated using sigmoidal interpolation curve.

Row | Compound | IC50
1 | CCc1cccc(CC)c1NC(=O)c1nn(C)c2c1CCc1cnc(Nc3ccc(C(=O)NC4CCN(C)CC4)cc3OC)nc1-2 [Compound 2, N-(2,6-diethylphenyl)-8-({2-methoxy-4-[(1-methylpiperidin-4-yl)carbamoyl]phenyl}amino)-1-methyl-4,5-dihydro-1H-pyrazolo[4,3-h]quinazoline-3-carboxamide] | 150 nM
2 | CCc1cccc(CC)c1NC(=O)c1nn(C)c2c1CCc1cnc(NC3CCN(S(C)(=O)=O)CC3)nc1-2 [Compound 57, N-(2,6-diethylphenyl)-1-methyl-8-{[1-(methylsulfonyl)piperidin-4-yl]amino}-4,5-dihydro-1H-pyrazolo[4,3-h]quinazoline-3-carboxamide] | 130 nM
3 | CCc1cccc(CC)c1NC(=O)c1nn(C)c2c1CCc1cnc(Nc3ccc(N(C)CCCN(C)C)cc3OC)nc1-2 [Compound 7, N-(2,6-diethylphenyl)-8-[(4-{[3-(dimethylamino)propyl](methyl)amino}-2-methoxyphenyl)amino]-1-methyl-4,5-dihydro-1H-pyrazolo[4,3-h]quinazoline-3-carboxamide] | 140 nM
4 | CCc1cccc(CC)c1NC(=O)c1nn(C)c2c1CCc1cnc(Nc3ccc(C(N)=O)cc3OC)nc1-2 [Compound 13, 8-[(4-carbamoyl-2-methoxyphenyl)amino]-N-(2,6-diethylphenyl)-1-methyl-4,5-dihydro-1H-pyrazolo[4,3-h]quinazoline-3-carboxamide] | 100 nM
5 | CCc1cccc(CC)c1NC(=O)c1nn(C)c2c1CCc1cnc(Nc3ccc(N4CCN(C)CC4)cc3OC)nc1-2 [Compound 5, N-(2,6-diethylphenyl)-8-{[2-methoxy-4-(4-methylpiperazin-1-yl)phenyl]amino}-1-methyl-4,5-dihydro-1H-pyrazolo[4,3-h]quinazoline-3-carboxamide] | 100 nM

The remaining compounds from weak to strong by IC50, led by results:

Row | IC50 | Compound
6 | 3400 nM | Cn1nc(C(=O)N(O)C2CCCCC2)c2c1-c1nc(NC3CCCC3)ncc1CC2 [Prior art compound, N-cyclohexyl-8-(cyclopentylamino)-N-hydroxy-1-methyl-4,5-dihydro-1H-pyrazolo[4,3-h]quinazoline-3-carboxamide, reference compound]
7 | 650 nM | CCc1cccc(CC)c1NC(=O)c1nn(C)c2c1CCc1cnc(NC3CCN(C(=O)CCNC)CC3)nc1-2 [Compound 66, N-(2,6-diethylphenyl)-1-methyl-8-{[1-(N-methyl-beta-alanyl)piperidin-4-yl]amino}-4,5-dihydro-1H-pyrazolo[4,3-h]quinazoline-3-carboxamide]
8 | 350 nM | CCc1cccc(CC)c1NC(=O)c1nn(C)c2c1CCc1cnc(Nc3ccc(N4CCN(C)CC4)cc3OC(F)(F)F)nc1-2 [Compound 3, N-(2,6-diethylphenyl)-1-methyl-8-{[4-(4-methylpiperazin-1-yl)-2-(trifluoromethoxy)phenyl]amino}-4,5-dihydro-1H-pyrazolo[4,3-h]quinazoline-3-carboxamide]
9 | 150 nM | CCc1cccc(CC)c1NC(=O)c1nn(C)c2c1CCc1cnc(NC3CCN(S(=O)(=O)CCNC)CC3)nc1-2 [Compound 56, N-(2,6-diethylphenyl)-1-methyl-8-[(1-{[2-(methylamino)ethyl]sulfonyl}piperidin-4-yl)amino]-4,5-dihydro-1H-pyrazolo[4,3-h]quinazoline-3-carboxamide]
